Measurements: patent publication US6013632A, “Compounds and their combinations for the treatment of influenza infection” (Emory University, priority 1998, dated 2000)

Assays:
Influenza A/WSN strain [1] = test: Virus production by HA titer in influenza-infected MDCK cells; format: cell-based; details: for inhibition at 10000 µM / inhibition at 30000 µM: Influenza A virus, WSN; for Decreased virus production (HA titer): 48 hours post infection
Influenza A/WSN strain [2] = test: Plaque-forming units in supernatant of infected MDCK cells; format: cell-based; details: 10 mM, 48 h
Procedure: MDCK cells were cultured in 100 mm dishes until 80% confluent. Cells were washed with phosphate-buffered saline and inoculated with Influenza A/WSN strain at a multiplicity of infection of 0.05-0.1 plaque-forming units/cell in serum-free DMEM medium for 2 hours. […] At 48 hours post infection, 100 μl supernatant from each dish was assayed for virus HA titer or plaque-forming units.

MDCK cells [3] = test: Toxicity to MDCK cells at the tested concentrations; details: 10 mM and 30 mM
MDCK cells [4] = details: 10 mM
Procedure: GSH was measured in MDCK cells after infection with influenza virus either without or with 10 mM GSH.

MDCK cells [5] = test system: MDCK cells
Influenza A/WSN strain [6] = details: 30 mM, normal human SAEC, cultured up to 72 h
Procedure: SAEC were cultured until 70% confluent. Cells were washed and inoculated with influenza A/WSN strain for 2 h. After washing to remove non-adherent virus, cells were cultured for up to 72 h in medium without or with GSH and assayed for virus production by HA titer.

Influenza A/WSN strain [7] = details: normal human SAEC, plaque forming assay
MDCK cells [8] = test system: MDCK cells; remark: listed apart in the source
viral proteins = details: 35S-methionine labeling after virus infection, without or with added compound
Procedure: To determine whether GSH altered viral protein synthesis and processing, cells were incubated with ^35 S-methionine to label newly synthesized proteins following virus infection either without or with added GSH. Cells were washed and lysed in SDS-PAGE buffer.

## Ascorbate-2-phosphate
Influenza A/WSN strain [1]; 10 mM, 48 h post infection
  Inhibition of virus production (HA titer): 37%
Influenza A/WSN strain [1]; 10 or 30 mM
  Protection against virus titer and infectious particle production: provided protection
Influenza A/WSN strain [2]
  Inhibition of plaque-forming units: 50%

## CC(=O)N[C@@H](CS)C(=O)O [NAC, N-Acetyl-L-cysteine, reference compound]
Influenza A/WSN strain [1]; 10 mM, 24 h
  inhibition at 10000 µM: 50%
Influenza A/WSN strain [1]; 10 mM, 48 h post infection
  inhibition at 10000 µM: 62%
Influenza A/WSN strain [1]; 30 mM, 24 h
  inhibition at 30000 µM: 75%
Influenza A/WSN strain [1]; 30 mM, 48 h post infection
  inhibition at 30000 µM: 95%
MDCK cells [3]
  Toxicity to cells: not toxic

## N[C@@H](CCC(=O)N[C@@H](CS)C(=O)NCC(=O)O)C(=O)O [GSH, gamma-L-Glu-L-Cys-Gly]
Influenza A/WSN strain [1]; 1 mM
  Decreased virus production (HA titer): 30%
Influenza A/WSN strain [1]; 5 mM
  Decreased virus production (HA titer): 60%
Influenza A/WSN strain [1]; 10 mM, 48 h post infection
  Inhibition of virus production (HA titer): 56%
Influenza A/WSN strain [1]; 30 mM, 48 h post infection
  Inhibition of virus production (HA titer): 90%
MDCK cells [4]; MDCK cells, absence of virus
  Effect on cellular GSH: did not increase cellular GSH
MDCK cells [4]; virus-infected MDCK cells
  Effect on loss of cellular GSH: did not prevent the loss of GSH
MDCK cells [5]
  Toxicity to the cells: not toxic
Influenza A/WSN strain [6]
  Decrease of virus production (HA titer): greater than 90%
Influenza A/WSN strain [7]
  Confirmation of decreased virus production by number of infectious particles: confirmed
Influenza virus; 10-30 mM co-incubated with virus and MDCK cells for 2 h, washed, then 48 h
  Decrease in virus production: no decrease
Influenza virus; added after incubation of cells with virus, 48 h, MDCK cells
  Decrease of HA titer: 85%
Influenza virus; virus incubated 1 h with up to 30 mM before incubation with MDCK cells
  Effect on virus production after 48 h: no effect
MDCK cells [8]; no virus
  Apoptosis caused by the compound alone: did not cause apoptosis
MDCK cells [8]; up to 30 mM, 48 h
  Effect on apoptosis of virus infected cells: unaffected
Viral proteins
  Patterns or amounts of labeled viral proteins: no detectable differences
